Source: publication PMC2947157, “Development of a FLIPR Assay for the Simultaneous Identification of MrgD Agonists and Antagonists from a Single Screen” (Journal of Biomedicine and Biotechnology, 2010)
Where “and” joins values, the source holds several entries; their conditions need not be identical. Equal values may be shown once. Where a name gives a salt, the structure may show the parent alone. Read-outs that look alike come from different tables or passages of the source.

How the values were obtained:
[1] = biological target: T1, MrgD (Homo sapiens, UniProt Q8TDS7); test: Calcium mobilization FLIPR assay, agonist dose-response, CHO-DUKX cells expressing human MrgD; assay type: cell-based; details: for FLIPR response in human MrgD expressing cells: result in words
T1 construct: expressed in transfected cells
Protocol: (§1) A Kozak sequence and HA epitope tag were incorporated in the forward primer. […] A Kozak sequence and c-Myc epitope tag were incorporated in the forward primer. The resulting PCR products were cloned into the Xba I and EcoR I sites of pHTOP vector, a proprietary derivative of the pED expression vector [12]. For transfection, CHO-DUKX-A2 cells (DHFR(−) CHO cell line stably expressing the tetracycline transactivator) were grown in M alpha media containing 1% MEM nonessential amino acids solution (NEAA), 10% fetal bovine serum (FBS), and 500 ug/mL G418. MrgDpHTOP was transfected using Lipofectamine Plus reagents as per the manufacturer's recommendations. Antibiotic selection was performed using Dulbecco's modified Eagle medium supplemented with 10% FBS, 100 units/mL penicillin, 100 μg/mL streptomycin, 1% NEAA, and 20 nM methotrexate (Calbiochem, San Diego, CA). Cell lines were maintained at 37°C in a humidified atmosphere containing 5% CO2. Surviving colonies were expanded further and used for functional analysis. Clones of human MrgD expressing cell lines were evaluated initially for MrgD transcript level by Taqman analysis and normalized against the house-keeping gene GAPDH (Glyceraldehyde-3-phosphate dehydrogenase).
(§2) CHO-DUKX-A2 cells stably expressing human or rat MrgD were plated in 384-well tissue-culture-treated polystyrene black clear flat-bottom assay plates (BD Biosciences, San Jose, CA). Thirty μL of 8 × 10^5 cells/mL (24,000 cells/well) were plated and maintained for ~24 hrs at 37°C in a humidified atmosphere containing 5% CO2. After removal of the growth medium, cells were incubated with 30 μL of Ca3 dye (Molecular Devices Corporation, Sunnyvale, CA) containing 2.5 mM freshly prepared probenecid made according to the manufacturer's protocol. Agonists were prepared in 1x Hanks balanced salt solution (HBSS) buffer with 20 mM HEPES buffer. Changes in intracellular Ca^2+ were monitored using the Fluorometric Imaging Plate Reader (FLIPR; Molecular Devices, Sunnyvale, CA). For the double addition protocols, compounds were added by the FLIPR, and readings were taken for 3 min, followed by the addition of the agonist. The change in intracellular calcium [Ca^2+] was monitored as an increase in relative fluorescence units (RFUS), and the difference between maximum and minimum RFU was used to calculate dose-response curves. Data analysis was performed using PRISM 4.0 (GraphPAD Software Inc.). For the LOPAC screen, cells were plated in 96-well tissue-culture-treated polystyrene black clear flat-bottom assay plates (BD Biosciences, San Jose, CA). One hundred μL of cells (40,000 cells/well) were plated and maintained under the same conditions as above. For the assay, growth medium was replaced with 90 μL of Ca3 dye containing 2.5 mM freshly prepared probenecid. The FLIPR added 10 μL of beta-alanine at 100 μM final concentration. For antagonist dose-response assays, the cells were incubated with the compounds for ~30 minutes after which beta-alanine at a final concentration of 10 μM was added by the FLIPR.
Target sequence in this assay (Q8TDS7 whole entry): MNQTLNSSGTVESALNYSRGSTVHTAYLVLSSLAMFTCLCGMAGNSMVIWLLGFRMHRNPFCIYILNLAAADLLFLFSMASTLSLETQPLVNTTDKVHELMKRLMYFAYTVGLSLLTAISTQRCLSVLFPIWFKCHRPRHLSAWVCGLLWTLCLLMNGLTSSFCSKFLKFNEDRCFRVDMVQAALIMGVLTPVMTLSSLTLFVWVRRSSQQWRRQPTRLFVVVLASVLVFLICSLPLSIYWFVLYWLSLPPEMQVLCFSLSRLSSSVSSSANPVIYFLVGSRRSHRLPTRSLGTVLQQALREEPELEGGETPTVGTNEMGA

[2] = biological target: T1, MrgD; test: FLIPR antagonist dose-response assay against beta-alanine; assay type: cell-based; details: beta-alanine 10 μM, ~30 min preincubation
Protocol: as §2
Target sequence in this assay (Q8TDS7 whole entry, species assumed): as the sequence (Q8TDS7 whole entry) above

[3] = biological target: T1, MrgD; test: Dual-addition FLIPR LOPAC library screen (test compound, then beta-alanine); assay type: cell-based; details: dual-addition format; for Calcium mobilization following addition of beta-alanine (addition 2) in LOPAC screen: beta-alanine 100 μM, Figure 4(b)
Protocol: as §2
Target sequence in this assay (Q8TDS7 whole entry, species assumed): as the sequence (Q8TDS7 whole entry) above
We developed an assay that could allow both agonists and antagonists to be distinguished in a single screen. Employing such an assay format should enable the identification of tool compounds that may help in elucidating the role of MrgD in pain. The diagram in Figure 3 describes the dual-addition assay format where addition of the test compound (addition 1) is followed by the addition of beta-alanine (addition 2). A FLIPR response immediately upon the addition of a test compound would indicate its activity as an agonist. On the other hand, if the compound behaves as an antagonist, not only will there be a lack of response to this test compound, it will also attenuate the effects of the subsequent addition of beta-alanine. In the event of no receptor engagement by the test compound, a normal agonist response will be observed to beta-alanine. We validated this assay format, which was robust and consistent with a Z′ factor greater than 0.7.
Figure 3 Assay format for the identification of an agonist and antagonist from a single screen. Test compound is added first followed by a second addition of beta-alanine. An agonist will induce a FLIPR response immediately upon the addition of a test compound. An antagonist will cause a pharmacological blockade of the MrgD receptor resulting in attenuation or complete lack of response to beta-alanine. In the event of no receptor engagement, a normal agonist response will be observed from beta-alanine addition.
Figure 4 Representative FLIPR traces obtained from LOPAC screen. Compounds from the LOPAC library were applied followed by the addition of beta-alanine. […]

[4] = biological target: T2, rat MrgD (Rattus norvegicus, UniProt Q7TN41); test: Calcium mobilization FLIPR assay, agonist dose-response, CHO-DUKX cells expressing rat MrgD; assay type: cell-based; details: for EC50 / EC50 Rat MrgD: CHO-DUKX cells, FLIPR, Table 1: mean ± SD from 2–6 independent experiments; for FLIPR response in rat MrgD expressing cells: result in words
T2 construct: expressed in transfected cells
T2 sequence (Q7TN41 1-319): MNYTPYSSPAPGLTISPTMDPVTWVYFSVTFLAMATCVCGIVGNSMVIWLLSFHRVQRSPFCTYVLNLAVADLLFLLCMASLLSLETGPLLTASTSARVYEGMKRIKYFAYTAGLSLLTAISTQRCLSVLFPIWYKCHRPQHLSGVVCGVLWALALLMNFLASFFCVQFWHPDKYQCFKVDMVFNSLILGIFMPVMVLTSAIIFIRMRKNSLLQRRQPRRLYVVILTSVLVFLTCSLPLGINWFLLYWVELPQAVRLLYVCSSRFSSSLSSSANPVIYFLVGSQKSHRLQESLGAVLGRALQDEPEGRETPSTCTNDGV
Protocol: as §1, §2

[5] = tested on: beta-alanine-induced calcium mobilization in MrgD CHO-DUKX cells; test: Evaluation of Gi and Gq coupling of MrgD by FLIPR response to beta-alanine; assay type: cell-based; details: 100 μM beta-alanine
Protocol: MrgD is known to couple through both Gi and Gq. To further explore the utility of the cell line for a potential secondary assay measuring cAMP, we investigated whether the FLIPR assay was capable of distinguishing the extent of Gi and Gq coupling of MrgD. MrgD CHO-DUKX cells were treated with either the Gi inhibitor pertussis toxin (PTX) overnight or the phospholipase C (PLC) inhibitor U-73122 for 30 or 60 minutes and then evaluated for their responses to beta-alanine.
Figure 2 Evaluation of Gq (Figure 2(a)) and Gi (Figure 2(b)) coupling of MrgD receptors assessed using FLIPR response. MrgD cells were pretreated with the PLC inhibitor (U-73122 at 2 μM for 30 or 60 minutes) or pertussis toxin (100 ng overnight) for blocking Gi coupling to MrgD. FLIPR responses were evaluated by the addition of 100 μM beta-alanine.

[6] = tested on: MrgD expressing cell lines; details: read-out: EC50 for MrgD expressing cell lines, cited from earlier work
[7] = HA 966 racemate and enantiomers, species not stated at place, racemate value equals human MrgD value of Table 2, read-out: EC50 as MrgD agonist (Figure 5(a))
[8] = CHO-DUKX cells, FLIPR, Table 1: mean ± SD from 2–6 independent experiments, read-out: EC50 Human MrgD
[9] = CHO-DUKX cells, FLIPR, Table 1: mean ± SD from 2–6 independent experiments
[10] = unit inferred, read-out: IC50 as MrgD antagonist (dose response analysis)

Compound: NC1CCN(O)C1=O (single isomer, unassigned; (+)) [(+) HA 966]
- EC50 [1, 7]: 106 µM

Compound: CN(C)CCCN1c2ccccc2Sc2ccc(Cl)cc21 [chlorpromazine hydrochloride]
- IC50 ([2]; read-out: IC50 as MrgD antagonist (Figure 5 legend)): 2.7 µM
- Calcium mobilization following addition of beta-alanine (addition 2) in LOPAC screen [3]: attenuation or complete absence of calcium mobilization

Compound: 5, 7 dihydroxytryptamine creatinine sulfate
- EC50 [1, 8]: 5.2 µM
- EC50 [4]: 9.7 µM

Compound: CCCn1c(=O)c2[nH]c(-c3ccc(OCC(=O)NCCN)cc3)nc2n(CCC)c1=O [Xanthine amine congener]
- EC50 [1, 8]: > 100 µM
- EC50 [4]: 48.3 µM

Compound: CC(C)C[C@H](CN)CC(=O)O [Pregabalin]
- EC50 Human MrgD [1, 9]: No effect
- FLIPR response in human MrgD expressing cells [1]: failed to induce a response
- EC50 Rat MrgD [4]: No effect
- FLIPR response in rat MrgD expressing cells [4]: failed to induce a response

Compound: COc1ccc2c(c1)CC[C@@H]1[C@@H]2CC[C@]2(C)[C@@H](NCCCCCCN3C(=O)C=CC3=O)CC[C@@H]12 [U-73122]
- Effect on FLIPR response to beta-alanine ([5]; U-73122 at 2 μM for 30 or 60 minutes): completely blocked

Compound: CSc1ccc2c(c1)N(CCC1CCCCN1C)c1ccccc1S2 (centres unmarked) [thioridazine hydrochloride]
- IC50 [2, 10]: 1.06 µM
- Calcium mobilization following addition of beta-alanine (addition 2) in LOPAC screen [3]: attenuation or complete absence of calcium mobilization

Compound: CCCN1CCc2cccc3c2[C@H]1Cc1ccc(O)c(O)c1-3.Cl [R(−)-Propylnorapomorphine hydrochloride]
- IC50 [2, 10]: 1.46 µM
- Calcium mobilization following addition of beta-alanine (addition 2) in LOPAC screen [3]: attenuation or complete absence of calcium mobilization

Compound: NCC1(CC(=O)O)CCCCC1 [Gabapentin]
- EC50 Human MrgD [1, 9]: No effect
- FLIPR response in human MrgD expressing cells [1]: failed to induce a response
- EC50 Rat MrgD [4]: No effect
- FLIPR response in rat MrgD expressing cells [4]: failed to induce a response

Compound: NCCCC(=O)O [GABA, gamma-aminobutyric acid]
- EC50 [1, 8]: 53 ± 26 µM
- FLIPR response in human MrgD expressing cells [1]: weakly stimulated
- EC50 [4]: 49.8 ± 1.5 µM
- FLIPR response in rat MrgD expressing cells [4]: weakly stimulated
- Response to test compound (addition 1) in LOPAC screen ([3]; Figure 4(a)): evoked a response

Compound: NC1CCN(O)C1=O (single isomer, unassigned; (-)) [(−) HA 966]
- EC50 [1, 7]: 5.5 µM

Compound: NCC(=O)O [Glycine]
- EC50 [1, 8]: > 100 µM
- FLIPR response in human MrgD expressing cells [1]: not
- EC50 [4]: > 100 µM
- FLIPR response in rat MrgD expressing cells [4]: not

Compound: pertussis toxin [PTX]
- Reduction in calcium mobilization ([5]; pertussis toxin 100 ng overnight): ~50%

Compound: NC1CCN(O)C1=O (racemic) [(±) HA 966]
- EC50 [1, 8]: 11 µM
- EC50 [4]: 13.2 µM

Compound: CN[C@@H]1C[C@@H](c2ccc(Cl)c(Cl)c2)c2ccccc21 [indatraline hydrochloride]
- Calcium mobilization following addition of beta-alanine (addition 2) in LOPAC screen [3]: attenuation or complete absence of calcium mobilization

Compound: NCCC(=O)O [Beta-alanine]
- EC50 [1, 8]: 1 to 4 µM and 3.76 µM
- EC50 [4]: 1 to 4 µM and 3.77 µM
- EC50 ([6]; ref 9): 15 ± 1 µM
- EC50 ([6]; ref 11): 8.6 µM
